# How the values were obtained:
# diabetics = experiment: Brickellia flavonoids administered to diabetics; format: in vivo; settings: for results in diabetics compared with the extract: flavonoids extracted and fractionated from Brickellia californica; for effectiveness in treating diabetes: alone or in combination
# Excerpt: The flavonoids specifically used were dihydrokaemferol and apigenin, a flavone. […] I have discovered an underlying “molecular switch” that controls both forms of diabetes. This “switch” can be operated by luteolin and similar flavonoids.
# [1] = tested on: Type II (BBZDR/Wor) diabetic rats; experiment: luteolin dose study in chronic Type 2 diabetic rats over 24 hr; format: in vivo, rat
# Method: Animal tests of luteolin were made at BRM (Biomedical Research Models, Inc.) an East coast contract research organization (CRO) that specializes in diabetes research. […] Historically, these strains have been widely used in similar pre-clinical studies to predict anti-diabetogenic efficacy.
# First, a 24 hour baseline study was performed on 9 chronic Type 2 rats. We found no significant change in hyperglycemia over this 24 hour period of analysis in the diabetic rats. […] Blood glucose analysis was evaluated every 2 hours.
# Unfortunately, that animal died sometime before the 24 hr time point as a result of an accidental perforation of the esophagus during the administration of drug.
# [2] = tested on: Type 1 (BB/Wor) diabetic rats; experiment: single luteolin treatment in chronic Type I diabetic rats, blood glucose 0-6 hours; format: in vivo, rat; settings: for average blood glucose at 6 hours: from 415 (insulin) and 445 (luteolin) mg/dl at time 0; for decrease in blood glucose levels: within 6 hours, luteolin 3 mg intragastrically, PZI insulin 0.9-1.2 mU/day subcutaneous
# Method: Animal tests of luteolin were made at BRM (Biomedical Research Models, Inc.) an East coast contract research organization (CRO) that specializes in diabetes research. […] Historically, these strains have been widely used in similar pre-clinical studies to predict anti-diabetogenic efficacy. […] In this study, lean male diabetics were randomly assigned to 3 treatment groups (3-4 rats/group). […] Blood glucose was evaluated from time 0 through 6 hours (11 AM-5 PM). […] This response was fully consistent with prior work in the Type I rat model. […] In comparison, there was no reduction in the hyperglycemic state in the control group over the same interval (414 to 404 mg/dl).
# [3] = tested on: diabetic test animals (rats and mice); experiment: Brickellia extract and flavonoids in diabetic test animals; format: in vivo
# Method: It is believed that the Brickellia californica extract includes the flavonoids dihydrokaemferol, apigenin, luteolin, myricetin and quercetin. Further, the many other species of Brickellia contain these, or similar flavonoids, albeit in different proportions, and should also be effective in treatment of diabetes. Experiments with diabetic test animals (rats and mice) were carried out. […] Further, the administration of synthetic versions of the Brickellia flavonoids were also effective at lowering glucose levels.
# [4] = biological target: Kv1.3 voltage gated potassium channel (Homo sapiens, UniProt P22001); experiment: patch clamp analysis of Kv1.3 block; format: cell-based
# Kv1.3 voltage gated potassium channel, sequence (P22001 whole entry): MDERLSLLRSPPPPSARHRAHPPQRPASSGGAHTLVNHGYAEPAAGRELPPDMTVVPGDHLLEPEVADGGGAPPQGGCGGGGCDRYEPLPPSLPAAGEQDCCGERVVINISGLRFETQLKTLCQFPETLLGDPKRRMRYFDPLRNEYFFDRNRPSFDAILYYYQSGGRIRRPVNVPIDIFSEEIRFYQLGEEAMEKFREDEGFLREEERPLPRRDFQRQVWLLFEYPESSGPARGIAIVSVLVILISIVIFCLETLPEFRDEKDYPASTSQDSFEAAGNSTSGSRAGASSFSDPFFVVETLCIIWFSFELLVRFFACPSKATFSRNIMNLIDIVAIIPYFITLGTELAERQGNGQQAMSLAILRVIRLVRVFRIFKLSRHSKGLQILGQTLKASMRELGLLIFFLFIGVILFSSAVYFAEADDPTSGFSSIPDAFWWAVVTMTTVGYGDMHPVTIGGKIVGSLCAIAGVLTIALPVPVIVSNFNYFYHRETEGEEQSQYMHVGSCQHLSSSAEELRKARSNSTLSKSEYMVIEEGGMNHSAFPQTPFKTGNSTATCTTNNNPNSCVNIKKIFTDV
# Excerpt: When the toxic CD8^− Natural Killer Cells combines with the CD4^− Helper T Cells at cystein they electronically stimulate calmodulin. This voltage sensor activates one of the 80+ super gene channels necessary for the activation of the CD4^− and CD8^− T Cells, Kv1.3 a voltage gated potassium channel. If this channel is not activated by calmodulin the T-Cells remain in their resting states. […] There are 200 pores in a resting Beta cell. When cell potential reaches 1.3 nVolts, the Kv1.3, voltage gated potassium channel opens to expose the tyrosine kinase tails. These kinases when stimulated turn on the ras-Oncogene, a cancer promoter, which turns on Protein Kinase C, another tumor promoter. These drive the Nuclear Factors of the Activated T-Cell, such as cAMP; which stimulates the susceptibility genes associated with diabetes such as those on chromosome 19q13.3. These in turn produce InterLeukin-2, an inflammatory cytokine messenger signaling further T-Cell proliferation. When CD8^− cells sample the external receptors of the Beta cell, they find and bind to laminin to sites, such as AGM1, and releases InterLeukin-2 upon calcium loading. This inflammatory cytokine causes cell activation and suppression of insulin release. […]
# [5] = tested on: Type II (BBZDR/Wor) diabetic rats; experiment: extended (two weeks) luteolin treatment of obese Type II diabetic rats; format: in vivo, rat
# Excerpt: In the next experiment we elected to provide these same rats with a standardized dose over an extended period of treatment. […] The data were expressed for each rat as a percentage change in blood glucose level relative to each individual pre-treatment level.
molecule,measurement,setting,value
O=c1cc(-c2ccc(O)cc2)oc2cc(O)cc(O)c12 [apigenin],results in diabetics compared with the extract,diabetics,results similar to those produced by the extract
O=C1c2c(O)cc(O)cc2O[C@H](c2ccc(O)cc2)[C@H]1O [dihydrokaemferol],results in diabetics compared with the extract,diabetics,results similar to those produced by the extract
O=c1cc(-c2ccc(O)c(O)c2)oc2cc(O)cc(O)c12 [luteolin],effectiveness in treating diabetes,diabetics,effective in treating diabetes
same,"decrease in blood glucose levels, 50 mg three times a day","[1]; Type 2 diabetic rats, 150 mg total, within 24 hr",10.2%
same,"drop in blood glucose, 150 mg three times a day","[1]; Type 2 diabetic rats, 450 mg total, 24 hr",22.9%
same,"decrease in glucose, 250 mg three times a day","[1]; Type 2 diabetic rats, 750 mg total, 24 hr",27.7%
same,reduction of hyperglycemia over all doses,"[1]; Type II diabetic rats, over a 24 hour period, dose-dependent",10-28%
same,reduction of blood glucose in one rat,"[1]; one Type 2 rat, intermediate dose (150 mg), within 18 hr",52%
same,blood glucose of one rat after treatment,"[1]; one Type 2 rat, intermediate dose, from 777 mg/dl, within 18 hr",372 mg/dL
same,average blood glucose at 6 hours,[2],307 mg/dL
same,decrease in blood glucose levels,[2],31%
same,rank among treatments involving a single flavonoid,[3],the most effective agent
same,block of Kv1.3 channel at 100 nM,"[4]; luteolin tested at 100 nM, cell remained in its resting state",blocked completely
same,block of Kv1.3 channel,[4]; patch clamp analysis,blocks this channel
same,average drop of blood glucose levels,"[5]; Type II rats, 50 mg 3x/day for two weeks",41.1%
same,average blood glucose after treatment,"[5]; Type II rats, 50 mg 3x/day for two weeks, from 660 mg/dl",389 mg/dL
same,increase in blood glucose in one rat,"[5]; one rat with esophageal fistula that likely prohibited effective dosing, 50 mg 3x/day two weeks",9.3%
O=c1c(O)c(-c2cc(O)c(O)c(O)c2)oc2cc(O)cc(O)c12 [myricetin],effectiveness in treating diabetes,diabetics,effective in treating diabetes
insulin [reference compound],average blood glucose at 6 hours,[2],112 mg/dL
same,decrease in blood glucose levels,[2],75%

# — patent US20050181076A1, “Compositions and methods for treatment of diabetes” (priority 1999, published 2005)
